Laboratory results published in ChEMBL document CHEMBL6087474, “Discovery of an Efficacious RET PROTAC Degrader with Enhanced Antiproliferative Activity against Resistant Cancer Cells Harboring RET Solvent-Front Mutations” (J Med Chem, 2025).
The source made the active and inactive calls. The rule behind the calls is not given here.

Legend:
BaF3 [1] = assay: PROTAC activity at CRBN/KIF5B-RET (unknown origin) expressed in mouse BaF3 cells assessed as induction of RET degradation at 1000 nM measured after 6 hrs by Western blot analysis relative to control; assay type: cell-based
BaF3 [2] = assay: Antiproliferative activity against mouse BaF3 cells stably expressing KIF5B-RET fusion protein incubated for 72 hrs by CCK-8 assay; assay type: functional, cell-based; conditions: BaF3, 72 h
BaF3 [3] = assay: Antiproliferative activity against mouse BaF3 cells stably expressing KIF5B-RET-G810R mutant incubated for 72 hrs by CCK-8 assay; assay type: functional, cell-based; conditions: BaF3, 72 h
[4] = molecular target: Proto-oncogene tyrosine-protein kinase receptor Ret (Homo sapiens, UniProt P07949); assay: Inhibition of wildtype RET (unknown origin) in presence of ATP by FRET-based Z'-Lyte assay
Sequence of Proto-oncogene tyrosine-protein kinase receptor Ret (P07949 whole entry): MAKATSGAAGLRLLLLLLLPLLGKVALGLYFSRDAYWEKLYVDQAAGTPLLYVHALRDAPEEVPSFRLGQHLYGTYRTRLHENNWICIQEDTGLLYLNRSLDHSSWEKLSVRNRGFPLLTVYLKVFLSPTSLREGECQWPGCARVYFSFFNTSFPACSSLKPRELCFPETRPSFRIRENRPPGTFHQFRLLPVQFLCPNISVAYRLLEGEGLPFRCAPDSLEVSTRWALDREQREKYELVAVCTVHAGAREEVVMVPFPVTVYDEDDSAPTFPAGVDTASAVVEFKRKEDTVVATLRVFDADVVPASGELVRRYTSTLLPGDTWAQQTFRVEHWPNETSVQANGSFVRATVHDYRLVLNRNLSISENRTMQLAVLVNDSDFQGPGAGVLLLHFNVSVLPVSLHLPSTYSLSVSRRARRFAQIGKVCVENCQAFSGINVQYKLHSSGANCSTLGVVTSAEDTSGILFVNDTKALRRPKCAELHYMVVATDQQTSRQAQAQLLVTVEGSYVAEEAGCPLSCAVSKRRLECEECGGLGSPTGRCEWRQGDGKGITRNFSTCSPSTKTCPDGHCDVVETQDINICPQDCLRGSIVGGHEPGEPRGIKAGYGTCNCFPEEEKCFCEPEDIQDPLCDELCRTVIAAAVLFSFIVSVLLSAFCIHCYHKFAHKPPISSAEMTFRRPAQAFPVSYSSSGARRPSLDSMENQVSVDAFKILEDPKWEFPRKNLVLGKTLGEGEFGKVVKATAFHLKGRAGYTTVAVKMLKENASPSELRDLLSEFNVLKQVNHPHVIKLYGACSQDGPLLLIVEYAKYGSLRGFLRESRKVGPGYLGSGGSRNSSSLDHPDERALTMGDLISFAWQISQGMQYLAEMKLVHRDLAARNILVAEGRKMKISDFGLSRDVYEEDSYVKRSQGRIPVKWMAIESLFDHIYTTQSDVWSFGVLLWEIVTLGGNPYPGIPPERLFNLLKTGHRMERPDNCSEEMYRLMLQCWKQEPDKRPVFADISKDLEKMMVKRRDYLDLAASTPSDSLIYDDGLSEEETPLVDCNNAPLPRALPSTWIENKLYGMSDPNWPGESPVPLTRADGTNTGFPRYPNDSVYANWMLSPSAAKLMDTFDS

[5] = molecular target: Protein cereblon/Proto-oncogene tyrosine-protein kinase receptor Ret/Kinesin-1 heavy chain (Homo sapiens) (UniProt P07949+P33176+Q96SW2); assay: PROTAC activity at CRBN/KIF5B-RET in human LC-2-ad cells assessed as induction of RET degradation at 11.1 nM measured after 6 hrs by Western blotting analysis relative to control; assay type: cell-based
Sequence of Protein cereblon/Proto-oncogene tyrosine-protein kinase receptor Ret/Kinesin-1 heavy chain (Homo sapiens) (P07949 whole entry, looked up): as the sequence (P07949 whole entry) above
Sequence of Protein cereblon/Proto-oncogene tyrosine-protein kinase receptor Ret/Kinesin-1 heavy chain (Homo sapiens) (P33176 whole entry, looked up): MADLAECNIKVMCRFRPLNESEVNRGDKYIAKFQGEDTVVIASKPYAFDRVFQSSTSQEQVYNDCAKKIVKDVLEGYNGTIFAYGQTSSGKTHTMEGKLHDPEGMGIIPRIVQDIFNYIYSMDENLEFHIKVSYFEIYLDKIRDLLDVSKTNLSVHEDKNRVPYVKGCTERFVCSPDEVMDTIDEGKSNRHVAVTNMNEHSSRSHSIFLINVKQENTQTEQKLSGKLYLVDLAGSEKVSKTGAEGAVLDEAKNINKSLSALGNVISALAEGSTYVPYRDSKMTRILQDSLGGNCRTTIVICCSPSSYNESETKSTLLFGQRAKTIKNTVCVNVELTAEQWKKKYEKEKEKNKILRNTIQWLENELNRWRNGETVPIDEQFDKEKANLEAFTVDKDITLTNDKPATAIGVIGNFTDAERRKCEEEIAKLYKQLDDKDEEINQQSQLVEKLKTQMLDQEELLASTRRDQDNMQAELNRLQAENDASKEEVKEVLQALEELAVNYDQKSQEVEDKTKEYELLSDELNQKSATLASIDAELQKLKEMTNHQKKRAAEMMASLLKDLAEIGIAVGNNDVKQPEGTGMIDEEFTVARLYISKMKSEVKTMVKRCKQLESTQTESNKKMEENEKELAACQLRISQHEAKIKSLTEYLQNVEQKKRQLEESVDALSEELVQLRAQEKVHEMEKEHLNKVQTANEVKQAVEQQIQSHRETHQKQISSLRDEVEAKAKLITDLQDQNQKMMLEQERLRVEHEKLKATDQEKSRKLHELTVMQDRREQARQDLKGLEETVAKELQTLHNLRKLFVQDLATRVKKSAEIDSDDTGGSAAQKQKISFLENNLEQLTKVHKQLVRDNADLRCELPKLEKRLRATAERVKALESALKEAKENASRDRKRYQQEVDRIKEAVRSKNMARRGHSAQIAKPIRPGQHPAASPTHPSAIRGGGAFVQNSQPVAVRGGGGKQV
Sequence of Protein cereblon/Proto-oncogene tyrosine-protein kinase receptor Ret/Kinesin-1 heavy chain (Homo sapiens) (Q96SW2 whole entry, looked up): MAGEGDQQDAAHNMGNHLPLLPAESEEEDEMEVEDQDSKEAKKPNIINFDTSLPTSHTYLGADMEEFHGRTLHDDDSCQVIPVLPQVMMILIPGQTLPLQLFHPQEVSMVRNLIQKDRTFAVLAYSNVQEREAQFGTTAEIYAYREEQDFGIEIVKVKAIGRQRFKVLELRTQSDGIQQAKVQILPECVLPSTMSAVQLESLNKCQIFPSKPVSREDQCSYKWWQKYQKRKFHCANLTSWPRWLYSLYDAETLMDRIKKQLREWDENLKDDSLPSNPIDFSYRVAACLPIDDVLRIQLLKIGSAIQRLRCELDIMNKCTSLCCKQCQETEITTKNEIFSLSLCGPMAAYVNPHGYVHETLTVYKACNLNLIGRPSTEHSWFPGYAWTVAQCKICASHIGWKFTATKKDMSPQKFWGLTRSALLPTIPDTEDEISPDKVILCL

BaF3 [6] = assay: PROTAC activity at CRBN/KIF5B-RET-G810R mutant (unknown origin) expressed in mouse BaF3 cells assessed as induction of RET degradation at 300 nM measured after 6 hrs by Western blot analysis relative to control; assay type: cell-based; conditions: Homo sapiens
BaF3 [7] = assay: Antiproliferative activity against mouse BaF3 cells stably expressing CCDC6-RET-V804M mutant incubated for 72 hrs by CCK-8 assay; assay type: functional, cell-based; conditions: BaF3, 72 h
[8] = Effect on RET protein level in mouse BaF3 cells stably expressing wildtype KIF5B-RET assessed as fold change at 100 nM measured after 6 hrs by Western blot analysis (reference value: 1); assay type: functional
[9] = Effect on Shc protein level in mouse BaF3 cells stably expressing wildtype KIF5B-RET assessed as fold change at 100 nM measured after 6 hrs by Western blot analysis; assay type: functional
[10] = Effect on RET protein level in mouse BaF3 cells stably expressing KIF5B-RET-V804M mutant assessed as fold change at 33.3 nM measured after 6 hrs by Western blot analysis (reference value: 1); assay type: functional
[11] = Effect on Shc protein level in mouse BaF3 cells stably expressing KIF5B-RET-V804M mutant assessed as fold change at 300 nM measured after 6 hrs by Western blot analysis (reference value: 1); assay type: functional
[12] = Effect on Shc protein level in mouse BaF3 cells stably expressing KIF5B-RET-G810C mutant assessed as fold change at 300 nM measured after 6 hrs by Western blot analysis (reference value: 1); assay type: functional
[13] = Effect on RET protein level in mouse BaF3 cells stably expressing KIF5B-RET-G810R mutant assessed as fold change at 33.3 nM measured after 6 hrs by Western blot analysis (reference value: 1); assay type: functional
[14] = Effect on RET protein level in mouse BaF3 cells stably expressing KIF5B-RET-G810R mutant assessed as fold change at 100 nM measured after 6 hrs by Western blot analysis (reference value: 1); assay type: functional
BaF3 [15] = assay: Inhibition of RET (unknown origin) phosphorylation in mouse BaF3 cells stably expressing KIF5B-RET-G810R mutant at 333.3 to 3000 nM measured after 6 hrs by Western blot analysis; assay type: cell-based; conditions: Homo sapiens, dose 333.3-3000 nM
[16] = Induction of apoptosis in mouse BaF3 cells stably expressing wildtype KIF5B-RET fusion protein assessed as necrotic cells at 11.1 nM measured after 48 hrs by Annexin V-FITC/7-AAD staining based flow cytometric analysis (reference value: 2.40 %); assay type: functional
[17] = Induction of apoptosis in mouse BaF3 cells stably expressing wildtype KIF5B-RET fusion protein assessed as necrotic cells at 100 nM measured after 48 hrs by Annexin V-FITC/7-AAD staining based flow cytometric analysis (reference value: 2.40 %); assay type: functional
[18] = Induction of apoptosis in mouse BaF3 cells stably expressing wildtype KIF5B-RET fusion protein assessed as late apoptotic cells at 300 nM measured after 48 hrs by Annexin V-FITC/7-AAD staining based flow cytometric analysis (reference value: 1.03 %); assay type: functional
[19] = Induction of apoptosis in mouse BaF3 cells stably expressing wildtype KIF5B-RET fusion protein assessed as necrotic cells at 300 nM measured after 48 hrs by Annexin V-FITC/7-AAD staining based flow cytometric analysis (reference value: 2.40 %); assay type: functional
[20] = Induction of apoptosis in mouse BaF3 cells stably expressing KIF5B-RET-G810C mutant assessed as late apoptotic cells at 33.3 nM measured after 48 hrs by Annexin V-FITC/7-AAD staining based flow cytometric analysis (reference value: 1.96 %); assay type: functional
[21] = Induction of apoptosis in mouse BaF3 cells stably expressing KIF5B-RET-G810C mutant assessed as viable cells at 300 nM measured after 48 hrs by Annexin V-FITC/7-AAD staining based flow cytometric analysis (reference value: 86.58 %); assay type: functional; conditions: read-out: Activity
[22] = Induction of apoptosis in mouse BaF3 cells stably expressing KIF5B-RET-G810C mutant assessed as viable cells at 900 nM measured after 48 hrs by Annexin V-FITC/7-AAD staining based flow cytometric analysis (reference value: 86.58 %); assay type: functional; conditions: read-out: Activity
[23] = Induction of apoptosis in mouse BaF3 cells stably expressing KIF5B-RET-G810C mutant assessed as early apoptotic cells at 900 nM measured after 48 hrs by Annexin V-FITC/7-AAD staining based flow cytometric analysis (reference value: 8.57 %); assay type: functional
[24] = Induction of apoptosis in mouse BaF3 cells stably expressing KIF5B-RET-G810C mutant assessed as necrotic cells at 900 nM measured after 48 hrs by Annexin V-FITC/7-AAD staining based flow cytometric analysis (reference value: 2.89 %); assay type: functional
BaF3 [25] = assay: Antitumor activity against mouse BaF3 cells stably expressing KIF5B-RET-G810C mutant implanted in male BALB/c mouse model assessed as tumor growth inhibition at 30 mg/kg, ip administered daily for 14 days relative to control; assay type: functional; conditions: BaF3, 336 h, time 14 day, read-out: TGI
[26] = Toxicity in male BALB/c mouse model implanted with mouse BaF3 cells stably expressing KIF5B-RET-G810C mutant assessed as body weight loss at 10 to 30 mg/kg, ip administered daily for 14 days; assay type: organism-based; conditions: in vivo, 336 h, dose 10-30 mg/kg, time 14 day
BaF3 [27] = assay: Antitumor activity against mouse BaF3 cells stably expressing KIF5B-RET-G810C mutant implanted in male BALB/c mouse model assessed as reduction in tumor weight at 30 mg/kg, ip administered daily for 14 days relative to control; assay type: functional; parameters: scale not given: the % may be the effect or the level left; conditions: time 14 day
[28] = system: Kinesin-1 heavy chain/ Tyrosine-protein kinase receptor RET (Homo sapiens), P07949+P33176 [G810C]; assay: In vivo PROTAC activity at CRBN/KIF5B-RET-G810C mutant in male BALB/c mouse model implanted with mouse BaF3 cells stably expressing KIF5B-RET-G810C mutant assessed as induction of RET degradation in tumor at 30 mg/kg, ip measured after 3 days by Western blotting analysis relative to control; assay type: functional, organism-based; conditions: time 3.0 day

COc1ccc(CN2C3CC2CN(c2ccc(-c4cc(-c5cnn(C6CCN(CCCCCC#Cc7cccc8c7CN(C7CCC(=O)NC7=O)C8=O)CC6)c5)cn5ncc(C#N)c45)cn2)C3)cn1 (stereo not drawn)
Activity (BaF3 [1]): 74%
IC50 (BaF3 [2]): 0.01 µM
IC50 (BaF3 [3]): 0.15 µM
IC50 [4]: 0.0057 µM
Activity [5]: 61.6%
Activity (BaF3 [6]): 43%
IC50 (BaF3 [7]): 0.01 µM
fold change (FC) [8]: 0.3
fold change (FC) [9]: 1
fold change (FC) [10]: 0.2
fold change (FC) [11]: 1
fold change (FC) [12]: 1
fold change (FC) [13]: 0.9
fold change (FC) [14]: 0.9
inhibition (BaF3 [15]): Active
Activity [16]: 3%
Activity [17]: 0.52%
Activity [18]: 1%
Activity [19]: 0.42%
Activity [20]: 1.62%
viability at 0.3 µM [21]: 63.1%
viability at 0.9 µM [22]: 41%
Activity [23]: 54.08%
Activity [24]: 1.26%
inhibition in vivo at 30 mg/kg (BaF3 [25]): 49.2%
Activity [26]: Non-toxic
Activity (BaF3 [27]): 34.4%
Activity [28]: 55.3%
